The values that follow come from PMC514652, “A single amino acid determines preference between phospholipids and reveals length restriction for activation ofthe S1P4 receptor” (BMC Biochemistry, 2004).

The EC50 is the concentration at which the effect is half-maximal. Higher therefore signals a less potent agent.

Changes are numbered by the printed parent chain.

For assay [1], the target named is T1, S1P4 (Homo sapiens, UniProt O95977, E122Q).
T1 construct: gene S1PR4; HA-S1P4(E3.29(122)Q)-Gαi1(C351I) fusion in CHO-K1 membranes, pertussis toxin treated; with Gαi1(C351I) (fused)
T1 sequence (O95977 1-384 E122Q): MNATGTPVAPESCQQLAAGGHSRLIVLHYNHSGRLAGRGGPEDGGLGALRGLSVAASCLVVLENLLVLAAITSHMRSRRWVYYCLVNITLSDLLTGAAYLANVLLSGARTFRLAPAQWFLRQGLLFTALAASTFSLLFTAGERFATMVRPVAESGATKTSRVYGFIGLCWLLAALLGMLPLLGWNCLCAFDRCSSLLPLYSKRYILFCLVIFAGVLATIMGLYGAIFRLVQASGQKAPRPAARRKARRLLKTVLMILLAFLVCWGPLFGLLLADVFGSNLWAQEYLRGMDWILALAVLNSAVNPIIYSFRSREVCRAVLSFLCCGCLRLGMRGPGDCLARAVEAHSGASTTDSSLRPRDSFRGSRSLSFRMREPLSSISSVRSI
Put plainly: […]GTPγS binding assay at a single […] concentration (weak agonist). The conditions noted are these: read-out: % stimulation over basal at 10 μM. In kind it is cell-based. A general note: GTPγS is a poorly hydrolysed GTP analogue; its binding reports G protein activation.

In assay [2] the target is T2, S1P4 (Homo sapiens, UniProt O95977).
T2 construct: gene S1PR4
T2 sequence (O95977 1-384): T1 sequence (O95977 1-384 E122Q) with Q122E
Put plainly: […]GTPγS binding assay, CHO-K1 membranes. Format: biochemical.

As for `CCCCCCCCCCCCCCCC(=O)OC[C@@H](O)COP(=O)(O)O` [16:0 LPA], the activation at 10 µM on S1P4 [1] is approximately 19%. With `CCCCCCCCCCCCC/C=C/[C@@H](O)[C@@H](N)COP(=O)(O)O` [S1P, Sphingosine-1-phosphate], the EC50 at S1P4 [2] stood at 355 ± 155 nM.
